Laboratory results from patent US20240018136A1, “CDK Inhibitors And Their Use As Pharmaceuticals” (Prelude Therapeutics, Incorporated, priority 2022, published 2024).

Key:
CDK2/Cyclin E2 = CDK2/Cyclin E2 (Homo sapiens, UniProt P24941); test: CDK2/CyclinE2 enzymatic activity assay (TR-FRET); type: biochemical; settings: ATP 1 mM final, read-out: CDK2_E1 IC50
Method in brief: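 Insect-cell-expressed CDK2/Cyclin E2 (1 nM), ULight-4E-BP1 (50 nM) and ATP (1 mM) in HEPES pH 7.4 buffer were preincubated 20 min at RT with compound (9-dose, 3-fold), started with 10 mM MgCl2 and run 45 min at 37 °C. EDTA/Eu-anti-P-4E-BP1 stop, 60 min TR-FRET detection; IC50 from 4-parameter Hill fit.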

CDK4/Cyclin D1 = target: T1, CDK4/Cyclin D1 (Homo sapiens, UniProt P11802); test: CDK4/CyclinD1 enzymatic activity assay (TR-FRET); type: biochemical; settings: ATP 2 mM final, read-out: CDK4_D1 IC50
T1 construct: purchased ProQinase; host or cells: insect cell
T1 sequence (P11802 whole entry): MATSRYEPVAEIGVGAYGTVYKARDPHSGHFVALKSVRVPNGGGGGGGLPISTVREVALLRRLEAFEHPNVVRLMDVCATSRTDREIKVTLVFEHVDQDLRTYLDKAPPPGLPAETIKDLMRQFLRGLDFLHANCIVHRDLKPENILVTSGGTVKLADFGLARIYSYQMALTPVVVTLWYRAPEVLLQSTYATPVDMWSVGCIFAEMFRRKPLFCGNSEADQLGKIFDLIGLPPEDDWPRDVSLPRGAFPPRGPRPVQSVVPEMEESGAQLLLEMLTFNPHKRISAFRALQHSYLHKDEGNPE
T1 sequence (P24385 whole entry partner): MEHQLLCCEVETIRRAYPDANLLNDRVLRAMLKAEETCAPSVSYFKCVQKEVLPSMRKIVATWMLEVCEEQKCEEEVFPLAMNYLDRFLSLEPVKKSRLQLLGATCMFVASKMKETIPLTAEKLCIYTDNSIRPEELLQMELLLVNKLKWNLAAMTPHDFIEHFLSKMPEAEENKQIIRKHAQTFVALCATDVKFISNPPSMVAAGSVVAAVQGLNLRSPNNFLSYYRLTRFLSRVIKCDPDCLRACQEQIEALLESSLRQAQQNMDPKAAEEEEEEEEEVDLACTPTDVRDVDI
Method in brief: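 Insect-cell-expressed CDK4/Cyclin D1 (1 nM) phosphorylated ULight-4E-BP1 peptide (100 nM) at 2 mM ATP in HEPES pH 7.4 buffer after 20 min compound preincubation. Reaction started with 10 mM MgCl2, ran 45 min at 37 °C, then EDTA quench and Eu-anti-phospho-4E-BP1 TR-FRET detection. IC50 from 9-point 3-fold dilutions, 4-parameter fit.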

OVCAR3 p-RB = test: pRB ICW assay in OVCAR3 cells; type: cell-based; settings: Homo sapiens, OVCAR-3, incubated with compound for 2 hours
Method in brief: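 OVCAR3 cells were treated 2 h at 37 °C with a 9-point half-log compound series, in duplicate, with 10 μM reference compound as maximum inhibition. Cells were then fixed, permeabilized and stained with anti-phospho-RB plus DRAQ5. In-cell western intensities were read at 700/800 nm on Odyssey CLx.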

CN1CCN(CCCS(=O)(=O)N2CCC(Nc3ncc(C(F)(F)F)c(-c4cnc(CC(C)(C)O)s4)n3)CC2)CC1 [Example 80, 2-methyl-1-(5-(2-((1-((3-(4-methylpiperazin-1-yl)propyl)sulfonyl)piperidin-4-yl)amino)-5-(trifluoromethyl)pyrimidin-4-yl)thiazol-2-yl)propan-2-ol]
IC50 (CDK2/Cyclin E2): ≤ 100 nM | IC50 (CDK4/Cyclin D1): ≤ 100 nM | IC50 (OVCAR3 p-RB): 100 to 1000 nM

CS(=O)(=O)N1CCC(Nc2ncc(C(F)(F)F)c(-c3cnc(OC4CCCC4)s3)n2)CC1 [Example 27, 4-(2-(cyclopentyloxy)thiazol-5-yl)-N-(1-(methylsulfonyl)piperidin-4-yl)-5-(trifluoromethyl)pyrimidin-2-amine]
IC50 (CDK2/Cyclin E2): ≤ 100 nM | IC50 (CDK4/Cyclin D1): ≤ 100 nM | IC50 (OVCAR3 p-RB): > 1000 nM

Cc1ncc(-c2nc(NC3CCN(S(=O)(=O)c4cn(C)cn4)CC3)ncc2C(F)(F)F)s1 [Example 58, N-[1-(1-Methylimidazol-4-yl)sulfonylpiperidin-4-yl]-4-(2-methyl-1,3-thiazol-5-yl)-5-(trifluoromethyl)pyrimidin-2-amine]
IC50 (CDK2/Cyclin E2): ≤ 100 nM | IC50 (CDK4/Cyclin D1): ≤ 100 nM | IC50 (OVCAR3 p-RB): 100 to 1000 nM
